Measured values taken from paper PMC6112376, “Comprehensive Analyses and Prioritization of Tox21 10K Chemicals Affecting Mitochondrial Function by in-Depth Mechanistic Studies” (Environmental Health Perspectives, 2018).
Where two headings read alike, the source gives them in different places.

Legend:
HepG2 cells [1] = assay: ROS-Glo hydrogen peroxide (ROS) assay; assay type: cell-based, human; conditions: Homo sapiens, read-out: ROS (HepG2) EC50
HepG2 cells [2] = conditions: cited from earlier work
HepG2 cells [3] = assay: cells; conditions: Homo sapiens; for Emax: HepG2, read-out: MMP assays efficacy (%) HepG2
[4] = test system: Caenorhabditis elegans (Bristol N2); assay: C. elegans larval development and growth assay; conditions: for LEC (lowest effect concentration), larval growth assay: 48 h exposure
HepG2 cells [5] = assay: Intracellular ATP content (cell viability) assay; assay type: cell-based, human; conditions: for IC50: Homo sapiens, HepG2
[6] = test system: isolated rat liver mitochondria; assay: Oxygen consumption, Clark-type oxygen electrode; assay type: biochemical
[7] = test system: Nrf2/ARE (ARE-bla HepG2 cells); assay: ARE β-lactamase reporter gene assay; assay type: cell-based, human; conditions: for EC50: Homo sapiens, read-out: ARE (HepG2) EC50
hNSC = assay: MMP assay in human neural stem cells (hNSC); assay type: cell-based; conditions: Homo sapiens, Neural stem cell; 1 h treatment; fresh re-sourced stocks; mean±SD of three experiments; read-out: hNSC IC50 (MMP)
[8] = test system: HeLa cells expressing YFP-Parkin; assay: Parkin translocation assay; assay type: cell-based, human
rat primary hepatocytes [9] = assay: MMP assay in rat primary hepatocytes; conditions: for Rat hepatocytes (efficacy) (MMP): % of positive control, mean±SD of three experiments; for IC50: Rattus norvegicus, Hepatocyte
[10] = test system: Caenorhabditis elegans strain PE255; assay: In vivo C. elegans ATP status assay; conditions: Caenorhabditis elegans, read-out: LEC LUM: lowest effect concentration for luminescence, a measure of nematode ATP content
rat primary hepatocytes [11] = test system: rat primary hepatocytes
[12] = test system: p53 (p53-bla HCT-116 cells); assay: p53 β-lactamase reporter gene assay; assay type: cell-based, human
HepG2 cells [13] = test system: HepG2 cells
[14] = HepG2, 2 h treatment, mean±SD of three experiments
[15] = HepG2, 1 h, read-out: HepG2 IC50 Galactose (MMP)
[16] = HepG2, 1 h, read-out: HepG2 IC50 Glucose (MMP)
[17] = HepG2, read-out: MMP assays IC50 (µM) HepG2
[18] = HeLa cells stably expressing YFP-Parkin, treated for 2 h
[19] = 1 h, read-out: Rat hepatocytes IC50 (MMP)
[20] = read-out: MMP assays IC50 (µM) Rat Hepatocytes
[21] = 16 h incubation, mean±SD of three experiments

## NNc1nc(-c2ccccc2)cs1 [2-Hydrazino-4-phenylthiazole]
HepG2 cells [1]; [14]
  EC50: 34.5 ± 28.8 µM
HepG2 cells [2]
  MMP assays efficacy (%) qHTS-HepG2: -118±14%
HepG2 cells [2]; read-out: MMP assays IC50 (µM) qHTS-HepG2
  IC50: 2.32 ± 0.79 µM
HepG2 cells [3]; [15]
  IC50: 48.2 ± 17.5 µM
HepG2 cells [3]; [16]
  IC50: 37.1 ± 6.33 µM
HepG2 cells [3]; [17]
  IC50: 10 µM
HepG2 cells [3]
  Emax: 103%
[4]
  LEC (lowest effect concentration), larval growth assay: ≤ 10 µM
[4]; Caenorhabditis elegans, read-out: LEC EXT: lowest effect concentration for extinction, a measure of nematode size
  minimal effective concentration: 10 µM
HepG2 cells [5]; 5 mM glucose, 40 h treatment, mean±SD of three experiments
  ATP (HepG2, glucose) IC50: Inactive
HepG2 cells [5]; 10 mM galactose, 40 h treatment, mean±SD of three experiments
  ATP (HepG2, galactose) IC50: Inactive
[6]; 100 µM, glutamate/malate driven state 3 respiration, isolated rat liver mitochondria
  I-ADP, % of control (O2 consumption rate): 94 (50.2) % of control
[6]; 100 µM, glutamate/malate driven state 4 respiration, isolated rat liver mitochondria
  I-sub, % of control (O2 consumption rate): 119 (16.0) % of control
[6]; 100 µM, succinate-driven state 3 respiration, isolated rat liver mitochondria
  II-ADP, % of control (O2 consumption rate): 88 (59.2) % of control
[6]; 100 µM, succinate-driven state 4 respiration, isolated rat liver mitochondria
  II-sub, % of control (O2 consumption rate): 99 (21.4) % of control
[6]; mitochondrial respiration in isolated rat liver mitochondria, Clark type oxygen electrode, over tested concentrations
  Potential Mechanism: Inactive
[7]; HepG2, 16 h incubation, mean±SD of three experiments
  EC50: 6.92 ± 1.73 µM
hNSC
  IC50: 14.2 ± 2.56 µM
[8]; [18]
  Parkin recruitment: Inactive
Rat primary hepatocytes [9]
  Rat hepatocytes (efficacy) (MMP): −57.1±16.9%
Rat primary hepatocytes [9]; [19]
  IC50: 54.7 ± 21.1 µM
Rat primary hepatocytes [9]; [20]
  IC50: 21.5 ± 17.6 µM
Rat primary hepatocytes [9]; rat hepatocytes, mean ± SD of three experiments
  MMP assays efficacy (%) Rat Hepatocytes: -81±30%
[10]
  minimal effective concentration: 25 µM

## CO[C@H]1/C=C/O[C@@]2(C)Oc3c(C)c(O)c4c(O)c(c(/C=N/N5CCN(C)CC5)c(O)c4c3C2=O)NC(=O)/C(C)=C\C=C\[C@H](C)[C@H](O)[C@@H](C)[C@@H](O)[C@@H](C)[C@H](OC(C)=O)[C@@H]1C [Rifampicin, reference compound]
HepG2 cells [1]; HepG2, 2 h
  EC50: 34.5 µM
HepG2 cells [2]
  MMP assays efficacy (%) qHTS-HepG2: -94±13%
HepG2 cells [2]; read-out: MMP assays IC50 (µM), qHTS-HepG2
  IC50: 25.1 ± 6.38 µM
HepG2 cells [3]; [16]
  IC50: 63.2 µM
HepG2 cells [3]; [17]
  IC50: 15.5 µM
HepG2 cells [3]
  Emax: 85%
HepG2 cells [5]
  ATP (HepG2, galactose) IC50: Inactive
  ATP (HepG2, glucose) IC50: Inactive
[6]
  Potential Mechanism: Inactive
[6]; 4 µM
  I-ADP, % of control (O2 consumption rate): 85 (46.4) % of control
  I-sub, % of control (O2 consumption rate): 89 (11.7) % of control
  II-ADP, % of control (O2 consumption rate): 95 (83.4) % of control
  II-sub, % of control (O2 consumption rate): 96 (23.5) % of control
[6]; 20 µM
  I-ADP, % of control (O2 consumption rate): 71 (39.1) % of control
  I-sub, % of control (O2 consumption rate): 86 (11.3) % of control
  II-ADP, % of control (O2 consumption rate): 95 (84.2) % of control
  II-sub, % of control (O2 consumption rate): 107 (26.2) % of control
Rat primary hepatocytes [11]
  MMP assays efficacy (%) Rat Hepatocytes: -68±40%
  Rat hepatocytes (efficacy) (MMP): 41.4±5.71 ( −97.5±6.10 ) %
[12]
  p53 (HCT-116) EC50: Inactive
[7]; HepG2, 16 h
  EC50: 45.2 µM
[8]
  Parkin recruitment: Inactive
HepG2 cells [13]
  HepG2 IC50 Galactose (MMP): Inactive
Rat primary hepatocytes [9]; [19]
  IC50: 41.4 µM
Rat primary hepatocytes [9]; [20]
  IC50: 6.15 ± 2.2 µM

## Cc1cc(Cc2cc(C)cc(C(C)(C)C)c2O)c(O)c(C(C)(C)C)c1 [2,2′-Methylenebis(4-methyl-6-tert-butylphenol)]
HepG2 cells [1]; [14]
  EC50: 31.4 ± 10.1 µM
HepG2 cells [3]; [15]
  IC50: 6.6 ± 1.12 µM
HepG2 cells [3]; [16]
  IC50: 5.67 ± 1.02 µM
[4]
  LEC (lowest effect concentration), larval growth assay: ≤ 10 µM
HepG2 cells [5]; 5 mM glucose, 40 h treatment, mean±SD of three experiments, read-out: ATP (HepG2, glucose) IC50
  IC50: 34.1 ± 3.93 µM
HepG2 cells [5]; 10 mM galactose, 40 h treatment, mean±SD of three experiments, read-out: ATP (HepG2, galactose) IC50
  IC50: 34 µM
[12]; [21]
  p53 (HCT-116) EC50: Inactive
[7]; [21]
  ARE (HepG2) EC50: Inactive
hNSC
  IC50: 0.88 ± 0.25 µM
[8]; [18]
  Parkin recruitment: Inactive
Rat primary hepatocytes [9]
  Rat hepatocytes (efficacy) (MMP): −121±16.7%
Rat primary hepatocytes [9]; [19]
  IC50: 6.89 ± 1.44 µM
